Like-named read-outs stand apart in the source and are kept apart here. Ends that are not written are not given here.
Columns and labels:
E. coli ATCC 25922 = assay type: cell-based; details: ATCC25922, 18 h
Experimental: (§2) The antimicrobial activity of the peptides were defined as the minimum inhibitory concentrations (MIC) according to the Clinical and Laboratory Standards Institute broth microdilution method as described previously [47]. Briefly, 50 μL two-fold serial dilutions of peptides (with final concentrations ranging from 0 μM to 256 μM) and 50 μL bacterial fluids diluted with MHB were added to 96-well microtiter plates. The plates were then incubated at 37 °C for 18 h.

E. coli UB 1005 = assay type: cell-based; details: UB 1005, 18 h
Experimental: as §2

[1] = system: Salmonella typhimurium C 7731; assay type: cell-based; details: murium C 7731, 18 h
Experimental: as §2

[2] = system: Salmonella typhimurium ATCC 14028; assay type: cell-based; details: ATCC 14028, 18 h
Experimental: as §2

[3] = system: Salmonella pullorum C 7913; assay type: cell-based; details: 18 h
[4] = system: Salmonella enterica subsp. CMCC 50071; details: MHB, 37 °C, 18 h, peptides 0-256 μM, triplicate samples
Experimental: (§1) The antimicrobial activity of the peptides were defined as the minimum inhibitory concentrations (MIC) according to the Clinical and Laboratory Standards Institute broth microdilution method as described previously. Briefly, 50 μL two-fold serial dilutions of peptides (with final concentrations ranging from 0 μM to 256 μM) and 50 μL bacterial fluids diluted with MHB were added to 96-well microtiter plates. The plates were then incubated at 37 °C for 18 h.

S. aureus ATCC 29213 = assay type: cell-based
S. aureus ATCC 25923 = assay type: cell-based; details: ATCC 25923, 18 h
[5] = system: S. epidermidis ATCC 12228; assay type: cell-based; details: ATCC 12228, 18 h
Experimental: as §2

[6] = system: all microbial strains in this table; test: Geometric mean of MICs and therapeutic index; assay type: cell-based; details: nine strains of Table 2
E. coli ATCC25922 [7] = details: for MIC in the presence of Ca2+ / MIC in the presence of Fe3+ / MIC in the presence of K+ / MIC in the presence of Mg2+ / MIC in the presence of NH4+ / MIC in the presence of Na+ / MIC in the presence of Zn2+ / MIC, Control (enzymatic stability) / MIC, Control (salt stability) / MIC, Control (thermal stability): ATCC25922, 18 h; for MIC after Trypsin: peptide treated with 1 mg/mL trypsin
Experimental: as §1
We assessed the salt stability, thermal stability, and enzymatic stability of the AMPs. Briefly, E. coli ATCC25922 was selected as the test bacterium. The control group was untreated peptides. Different concentrations of salts (150 mM NaCl, 4.5 mM KCl, 6 μM NH4Cl, 1 mM MgCl2, […], 8 mM […], 2.5 mM CaCl2, and 4 mM FeCl3) were added to the incubation buffer to examine the effect of each salt on the antimicrobial activities of the peptides. AMPs were treated for 1 h at 100 °C to test the thermal stability. AMPs were also treated with trypsin, pepsin, papain, and protease K at a concentration of 1 mg/mL for 1 h at 37 °C to test enzyme stability.

E. coli ATCC25922 [8] = test: Flow cytometry, PI staining of membrane damage; assay type: cell-based; details: 30 min, 37 °C
Experimental: Flow cytometry can quantify the amount of cells with membrane damage as reported previously. Briefly, E. coli ATCC 25922 grown to the logarithmic phase were centrifuged and re-suspended to an OD600 nm of 0.2 in PBS (pH 7.4). The suspensions were mixed with each peptide at 1/2× MIC or 1× MIC and incubated for 30 min at 37 °C with constant shaking (140 rpm). The cells were then harvested by centrifugation, washed three times with PBS, and incubated with Propidium Iodide (PI) at a final concentration of […] for 30 min at 4 °C. Finally, the unbound dye was removed by washing with an excess amount of PBS. The data were recorded using fluorescence-activated cell sorting (Becton Dickinson, Franklin Lakes NJ, USA).

HEK293 cells = test: Cytotoxicity, MTT assay; assay type: cell-based, human; details: 20–24 h
Experimental: The cytotoxicity of each peptide was determined in HEK293 cells using the thiazolylblue (MTT) assay as described by Zhu. Briefly, HEK293 cells were subcultured overnight in 96-well plates with 10% fetal calf serum and […] at 37 °C in 5% CO2. The cell suspension was then prepared. Two-fold serial dilutions of the peptides were prepared using DMEM. Cell suspensions were added to the plates and incubated for 20–24 h at 37 °C in a cell incubator. Next, 40 μL MTT solution was added to every well, and the plates were incubated for 4 h at 37 °C. Finally, 150 μL DMSO was added to each well, the plates were shaken for 10 min, and the absorbance was measured at 492 nm using a microplate reader.

FWRRWQWRRWF-NH2 [FW-WF]
MIC (E. coli ATCC 25922): 4 µM | MIC (E. coli UB 1005): 16 µM | MIC [1]: 16 µM | MIC [2]: 128 µM | MIC [3]: 8 µM | MIC [4]: >128 µM | MIC (S. aureus ATCC 29213; S. aureus ATCC 29213, MHB, 37 °C, 18 h, peptides 0-256 μM, triplicate samples): >128 µM | MIC (S. aureus ATCC 25923): 16 µM | MIC [5]: 8 µM | GM (geometric mean of MIC values from all microbial strains) [6]: 78.67 µM | MIC after Papain (E. coli ATCC25922 [7]; ATCC25922, 1 h): 4 µM | MIC after Protease K (E. coli ATCC25922 [7]; ATCC25922, 1 h): 16 µM | MIC following heating at 100 °C (E. coli ATCC25922 [7]; ATCC25922, 1 h): 8 µM | MIC in the presence of Ca2+ (E. coli ATCC25922 [7]): 8 µM | MIC in the presence of Fe3+ (E. coli ATCC25922 [7]): 4 µM | MIC in the presence of K+ (E. coli ATCC25922 [7]): 4 µM | MIC in the presence of Mg2+ (E. coli ATCC25922 [7]): 4 µM | MIC in the presence of NH4+ (E. coli ATCC25922 [7]): 2 µM | MIC in the presence of Na+ (E. coli ATCC25922 [7]): 8 µM | MIC in the presence of Zn2+ (E. coli ATCC25922 [7]): 4 µM | MIC, Control (enzymatic stability) (E. coli ATCC25922 [7]): 4 µM | MIC, Control (salt stability) (E. coli ATCC25922 [7]): 4 µM | MIC, Control (thermal stability) (E. coli ATCC25922 [7]): 4 µM | MIC after Pepsin (E. coli ATCC25922 [7]; E. coli ATCC25922, peptide treated with 1 mg/mL pepsin, 1 h, 37 °C): >128 µM | MIC after Trypsin (E. coli ATCC25922 [7]; E. coli ATCC25922, 1 h, 37 °C): >128 µM | survival rates of the cells (no PI signal) (E. coli ATCC25922 [8]; 1/2× MIC): 82.5% | survival rates of the cells (no PI signal) (E. coli ATCC25922 [8]; 1× MIC): 58.7%

CC[C@H](C)[C@H](NC(=O)CN)C(=O)NCC(=O)N[C@@H](C)C(=O)N[C@H](C(=O)N[C@@H](CC(C)C)C(=O)N[C@@H](CCCCN)C(=O)N[C@H](C(=O)N[C@@H](CC(C)C)C(=O)N[C@H](C(=O)N[C@H](C(=O)NCC(=O)N[C@@H](CC(C)C)C(=O)N1CCC[C@H]1C(=O)N[C@@H](C)C(=O)N[C@@H](CC(C)C)C(=O)N[C@H](C(=O)N[C@@H](CO)C(=O)N[C@@H](Cc1c[nH]c2ccccc12)C(=O)N[C@H](C(=O)N[C@@H](CCCCN)C(=O)N[C@@H](CCCNC(=N)N)C(=O)N[C@@H](CCCCN)C(=O)N[C@@H](CCCNC(=N)N)C(=O)N[C@@H](CCC(N)=O)C(=O)N[C@@H](CCC(N)=O)C(N)=O)[C@@H](C)CC)[C@@H](C)CC)[C@@H](C)O)[C@@H](C)O)C(C)C)C(C)C [melittin]
cell viability (HEK293 cells; 4 μM): 41.95% | cell viability (HEK293 cells; 8 μM): 23.40% | cell viability (HEK293 cells; 16 μM): 0%

KWRRWQWRRWK-NH2 [KW-WK]
MIC (E. coli ATCC 25922): 4 µM | MIC (E. coli UB 1005): 8 µM | MIC [1]: 16 µM | MIC [2]: 32 µM | MIC [3]: 16 µM | MIC [4]: 128 µM | MIC (S. aureus ATCC 29213; ATCC 29213, 18 h): 8 µM | MIC (S. aureus ATCC 25923): 32 µM | MIC [5]: 8 µM | MIC after Papain (E. coli ATCC25922 [7]; ATCC25922, 1 h): 8 µM | MIC after Pepsin (E. coli ATCC25922 [7]; ATCC25922, 1 h): 16 µM | MIC after Protease K (E. coli ATCC25922 [7]; ATCC25922, 1 h): 8 µM | MIC following heating at 100 °C (E. coli ATCC25922 [7]; ATCC25922, 1 h): 4 µM | MIC in the presence of Ca2+ (E. coli ATCC25922 [7]): 8 µM | MIC in the presence of Fe3+ (E. coli ATCC25922 [7]): 4 µM | MIC in the presence of K+ (E. coli ATCC25922 [7]): 4 µM | MIC in the presence of Mg2+ (E. coli ATCC25922 [7]): 8 µM | MIC in the presence of NH4+ (E. coli ATCC25922 [7]): 8 µM | MIC in the presence of Na+ (E. coli ATCC25922 [7]): 8 µM | MIC in the presence of Zn2+ (E. coli ATCC25922 [7]): 8 µM | MIC, Control (enzymatic stability) (E. coli ATCC25922 [7]): 4 µM | MIC, Control (salt stability) (E. coli ATCC25922 [7]): 4 µM | MIC, Control (thermal stability) (E. coli ATCC25922 [7]): 4 µM | MIC after Trypsin (E. coli ATCC25922 [7]; E. coli ATCC25922, 1 h, 37 °C): >128 µM
